# Literature values, collected in patent publication US5516503A, “Diagnostic composition comprising a binuclear complex, its method of preparation and its use in magnetic resonance imaging” (Guerbet S.A., priority 1989, dated 1996).
# Assays:
# [1] = information of Berlex Lab.
# male mice = details: document FR-A-2 596 992
smiles,measurement,setting,value
"CNC[C@H](O)[C@@H](O)[C@H](O)[C@H](O)CO.CNC[C@H](O)[C@@H](O)[C@H](O)[C@H](O)CO.O=C([O-])CN(CCN(CC(=O)[O-])CC(=O)O)CCN(CC(=O)[O-])CC(=O)O.[Gd+3] [Magnevist, salt of di-N-methylglucamine (dimeglumine) of the complex Gd(III)-diethylenetriaminepentaacetic acid (DTPA)]",osmotic pressure,[1],1940 mosm/kg
same,LD50,male mice,4.45 mmol/kg
